# Measurements reported in US20210246157A1, “CAMPTOTHECIN DERIVATIVES AND PREPARATION METHODS AND APPLICATIONS THEREOF” (priority 2018, published 2021).
# Assays:
# HT-29 = assay: Cytotoxicity test (MTT, 72 h); conditions: Homo sapiens, HT-29, 72 h, read-out: 50% Inhibiting Concentration value (IC50)
# Description: (§1) Cells at logarithmic growth period are inoculated in a 96-well plate overnight, then drugs with a certain gradient concentrations are added, and incubation is carried out in a cell culture chamber (5% CO2, 37° C.) for 72 h.
# K562 = assay: Cytotoxicity test (MTT, 72 h); conditions: Homo sapiens, K562, 72 h, read-out: 50% Inhibiting Concentration value (IC50)
# Description: (§2) In order to investigate the antitumor activities of the compounds, a variety of tumor cell lines for test are selected. Cells at logarithmic growth period are inoculated in a 96-well plate overnight, then drugs with a certain gradient concentrations are added, and incubation is carried out in a cell culture chamber (5% CO2, 37° C.) for 72 h.
# A549 = assay: Cytotoxicity test (MTT, 72 h); conditions: Homo sapiens, A549, 72 h, read-out: 50% Inhibiting Concentration value (IC50)
# Description: as §2
# [1] = Solubility test, equilibrium method, UV-visible spectrophotometry; format: physicochemical; conditions: thermodynamic from solid
# Description: The solubility test is carried out by equilibrium method. […] An appropriate amount of the compound is weighed and dissolved in 1 mL of methanol solution to prepare a control solution with a certain concentration (C0). The concentration of test solution is calculated according to the following formula: Cx=(Ax/A0)C0, wherein Cx is concentration of test solution, Ax is absorbance of test solution, C0 is concentration of control solution, and A0 is absorbance of control solution.
# HCT-116 = assay: Cytotoxicity test (MTT, 72 h); conditions: Homo sapiens, HCT-116, 72 h, read-out: 50% Inhibiting Concentration value (IC50)
# Description: as §2
# TPC-1 = assay: Cytotoxicity test (MTT, 72 h); conditions: Homo sapiens, TPC1, 72 h, read-out: 50% Inhibiting Concentration value (IC50)
# Description: as §1
# H1975 = assay: Cytotoxicity test (MTT, 72 h); conditions: Homo sapiens, NCI-H1975, 72 h, read-out: 50% Inhibiting Concentration value (IC50)
# Description: as §2
# PANC-1 = assay: Cytotoxicity test (MTT, 72 h); conditions: Homo sapiens, PANC-1, 72 h, read-out: 50% Inhibiting Concentration value (IC50)
# Description: as §1
# MDA-MB-231 = assay: Cytotoxicity test (MTT, 72 h); conditions: Homo sapiens, MDA-MB-231, 72 h, read-out: 50% Inhibiting Concentration value (IC50)
# Description: as §2
# PC3 = assay: Cytotoxicity test (MTT, 72 h); conditions: Homo sapiens, PC-3, 72 h, read-out: 50% Inhibiting Concentration value (IC50)
# Description: as §2
# SW-480 = assay: Cytotoxicity test (MTT, 72 h); conditions: Homo sapiens, SW480, 72 h, read-out: 50% Inhibiting Concentration value (IC50)
# Description: as §1
# BGC-823 = assay: Cytotoxicity test (MTT, 72 h); conditions: Homo sapiens, BGC-823, 72 h, read-out: 50% Inhibiting Concentration value (IC50)
# Description: as §2
# HepG2 = assay: Cytotoxicity test (MTT, 72 h); conditions: Homo sapiens, HepG2, 72 h, read-out: 50% Inhibiting Concentration value (IC50)
# Description: as §2
# SKOV-3 = assay: Cytotoxicity test (MTT, 72 h); conditions: Homo sapiens, SK-OV-3, 72 h, read-out: 50% Inhibiting Concentration value (IC50)
# Description: as §1
# ECA-109 = assay: Cytotoxicity test (MTT, 72 h); conditions: Homo sapiens, ECa-109, 72 h, read-out: 50% Inhibiting Concentration value (IC50)
# Description: as §2
# 143B = assay: Cytotoxicity test (MTT, 72 h); conditions: Homo sapiens, read-out: 50% Inhibiting Concentration value (IC50)
# Description: as §2
# Hela = assay: Cytotoxicity test (MTT, 72 h); conditions: Homo sapiens, read-out: 50% Inhibiting Concentration value (IC50)
# Description: as §2
# [2] = aqueous with cosolvent or surfactant or cyclodextrin
SMILES,IC50 (HT-29) [µM],IC50 (K562) [µM],IC50 (A549) [µM],"solubility [1, 2] [µg/mL]","solubility ([1]; pH 7.4, aqueous buffer) [µg/mL]",solubility ([1]; saline or isotonic) [µg/mL],solubility ([1]; water) [µg/mL],IC50 (HCT-116) [µM],IC50 (TPC-1) [µM],IC50 (H1975) [µM],IC50 (PANC-1) [µM],IC50 (MDA-MB-231) [µM],IC50 (PC3) [µM],IC50 (SW-480) [µM],IC50 (BGC-823) [µM],IC50 (HepG2) [µM],IC50 (SKOV-3) [µM],IC50 (ECA-109) [µM],IC50 (143B) [µM],IC50 (Hela) [µM]
CCc1c2c(nc3ccc(OC(=O)OCCOCc4cn([C@H]5O[C@@H](CO)[C@H](O)[C@@H](O)[C@@H]5O)nn4)cc13)-c1cc3c(c(=O)n1C2)COC(=O)[C@]3(O)CC [Compound 37],1.94,1.95,13.1,360,54.4,725,159,2.34,18.3,21.1,13.7,1.82,10.9,0.014,1.25,2.19,2.63,1.62,17.6,12.7
CCc1c2c(nc3ccc(OC(=O)OCCOCCOCCOCCOCc4cn([C@H]5O[C@@H](CO)[C@H](O)[C@@H](O)[C@@H]5O)nn4)cc13)-c1cc3c(c(=O)n1C2)COC(=O)[C@]3(O)CC [Compound 42],13.5,2.5,5.73,120,85.2,5870,162,3.01,15.3,12.8,6.87,0.145,4.77,0.167,0.139,0.174,0.209,11.3,10.6,6.87
CCc1c2c(nc3ccc(OC(=O)OCCOCCOCc4cn([C@H]5O[C@@H](CO)[C@H](O)[C@@H](O)[C@@H]5O)nn4)cc13)-c1cc3c(c(=O)n1C2)COC(=O)[C@]3(O)CC [Compound 47],0.694,0.228,2.95,650,60.8,511,109,0.273,12.9,10.8,3.54,2.28,2.46,0.274,0.228,2.74,3.29,0.578,8.96,3.54
CCc1c2c(nc3ccc(OC(=O)OCCOCCOCCOCc4cn([C@H]5O[C@@H](CO)[C@H](O)[C@@H](O)[C@@H]5O)nn4)cc13)-c1cc3c(c(=O)n1C2)COC(=O)[C@]3(O)CC [Compound 52],0.859,0.439,11.1,320,85.2,446,3050,0.527,26.1,21.8,13.3,6.85,9.26,0.167,0.139,8.22,9.86,0.716,18.1,13.3
CCc1c2c(nc3ccc(OC(=O)OCCOCc4cn(CCO[C@H]5O[C@@H](CO)[C@H](O)[C@@H](O)[C@@H]5O)nn4)cc13)-c1cc3c(c(=O)n1C2)COC(=O)[C@]3(O)CC [Compound 56],9.39,0.114,4.7,2180,85.2,1110,636,0.137,9.9,8.25,5.63,8.53,3.91,0.112,0.093,10.2,12.3,7.83,6.88,5.63
